Columns and labels:
[1] = target: GII.17 VLP; type: binding, norovirus; settings: 100 μM peptide on SA chip; for Kd: GII.17 VLP 1, 0.1, 0.01, 0.001 mg/mL, KD calculated from ka and kd; for ka / kd: GII.17 VLP; for ka: association 90 sec; for kd: dissociation 60 sec
Description: (§1) The apparatus used was BLItz™ (manufactured by ForteBio). The tip of SA chip (manufactured by ForteBio) was kept in contact with purified water for 1 minute for hydration and was then kept in contact with a 1% BSA aqueous solution for 1 hour for blocking. The SA chip subjected to blocking treatment was set to the measuring unit of the BLItz™ main body, and measurement was performed according to the program shown in Table 16. The peptides of SEQ ID NOs: 103, 167, 205, 263, 283, 288, and 302 were used, and the concentration was adjusted to 100 μM. The concentrations of each of the GII.3 and GII.17 VLPs were adjusted to 1, 0.1, 0.01, and 0.001 mg/mL. The measurement data were analyzed using the attached software, and the KD value was calculated based on the Ka and Kd values.

[2] = target: GII.3 VLP; type: binding, norovirus; settings: 100 μM peptide on SA chip; for Kd: GII.3 VLP 1, 0.1, 0.01, 0.001 mg/mL, KD calculated from ka and kd; for ka / kd: GII.3 VLP; for ka: association 90 sec; for kd: dissociation 60 sec
Description: as §1

Sequence | Kd [1] [nM] | ka [1] [M⁻¹ s⁻¹] | kd [1] [s⁻¹] | Kd [2] [nM] | ka [2] [M⁻¹ s⁻¹] | kd [2] [s⁻¹]
ANYRWSRSIK [No.263] | 19.1 | 140000 | 0.00865 | 57.5 | 851000 | 0.049
CKARSARGVS [No.288] | 12 | 620000 | 0.00747 | 6.86 | 2.09e+06 | 0.0143
FVWRRRAGLY [No.167] | 0.696 | 1.59e+06 | 0.00111 | 1.39 | 3.14e+06 | 0.00435
FVWSRRTGLY [No.205] | 109 | 169000 | 0.0184 | 31.6 | 1.03e+06 | 0.001
RFLVPVVKVM [No.103] | 8.13 | 1.38e+06 | 0.0112 | 8.07 | 2.1e+06 | 0.017
RSMSLHVSMT [No.283] | 1.39 | 994000 | 0.000138 | 0.909 | 7.86e+06 | 0.00715
VWWGRRISRF [No.302] | 28.4 | 2.28e+06 | 0.0648 |  |  | 
